{"source": "paper PMC11679793", "about": "“Structure-Activity Relationship Study of Majusculamide D: Overcoming Metabolic Instability and Severe Toxicity with a Fluoro Analogue” (Marine Drugs, 2024)", "key": {"[1]": {"assay": "Stability in mouse plasma assay", "format": "in vitro ADME", "details": "1 μM, 37 °C, 2 h incubation", "protocol": "Thaw plasma at room temperature and vortex for 3–5 s. Centrifuge at 3000 rpm at 10 °C for 10 min, and carefully transfer the supernatant to a new Eppendorf tube. Preincubate the plasma at 37 °C for 10 min. Prepare a series of test substances by adding 3 μL of the compound (100 μM) to 297 μL of plasma to achieve a final concentration of 1 μM, ensuring that the DMSO concentration in plasma is 1%. Propantheline bromide is used as a positive control. Incubate the mixture at 37 °C, and at specified time points (0, 1, 2, 4, and 24 h), take 50 μL of the plasma sample. To terminate the reaction, add 250 μL of acetonitrile (containing an internal standard), vortex thoroughly, and centrifuge at 16,000 rcf (4 °C) for 10 min. Collect 130 μL of the supernatant and dilute with 70 μL of pure water for LC-MS/MS analysis. The concentration of the test substances in plasma samples was determined using LC-MS/MS. The stability of the test substance in plasma was evaluated by measuring the remaining percentage of the compound in the plasma over time."}, "PANC-1 xenograft tumor": {"test_system": "PANC-1 xenograft tumor", "protocol": "Furthermore, a xenografted murine subcutaneous tumor model was employed to evaluate the effects of majusculamide D and the optimized analogues 1c and 1n (Figure 1B). PANC1-bearing BALB/c nude mice were separated randomly, with a total of six mice in each group. Gemcitabine was chosen as the positive drug; the mice were then administered intravenous doses of 1c (5 mg/kg), 1n (5 mg/kg), 1a (5 mg/kg), and gemcitabine (20 mg/kg) every other day for 24 days.\nA total of 4 × 10^6 PANC-1 cells suspended in 100 μL PBS were subcutaneously injected into the right shoulder region of BALB/c nude mice. When the tumor volume reached approximately 200 mm^3, the mice were euthanized, and the tumor tissues were harvested and designated as F1 generation. Tumor tissues were then cut into small cubes measuring approximately 3 × 3 × 3 mm, which were implanted into new BALB/c mice to propagate the tumors. This procedure was repeated to obtain the F2 generation of tumors. Finally, mice bearing F3 generation transplant tumors were used for drug treatment experiments. When the tumor volume reached approximately 80–100 mm^3, the mice were randomly divided into five groups (n = 6): control group, 5 mg/kg compound 1a group, 5 mg/kg compound 1c group, 5 mg/kg compound 1n group, and 20 mg/kg gemcitabine group. The compounds 1a, 1c, and 1n were dissolved in DMSO and then diluted with 0.9% physiological saline to achieve a final concentration of 0.5 mg/mL as the dosing concentration. Gemcitabine was dissolved directly in 0.9% saline to achieve a final concentration of 2 mg/mL as the dosing concentration. The compounds were administered intravenously every two days, alternating between the left and right tail veins to minimize vein damage. Injections were performed using ultra-fine syringes (30G needles) to reduce stress and ensure consistent delivery. The body weight and tumor volume of the mice were measured every four days. On day 24, the mice were euthanized, and the tumor weights were recorded. Tumor volume (V) was calculated using the formula: V = (ab^2)/2, with “a” representing the long diameter of the tumor and “b” representing the short diameter of the tumor. […] Tumor weight was used to calculate the tumor inhibition rate (Figure 1G)."}, "[2]": {"assay": "Serum biochemical analysis and H&E histology of liver and kidney", "format": "in vivo, mice", "details": "5 mg/kg every other day, 14 days", "protocol": "In the biochemical and histological assays, 1n (5 mg/kg) and 1a (5 mg/kg) were administered to mice every other day, with the control group receiving an equivalent dose of saline. Following 14 days, mouse serum was collected for biochemical analysis, and organs were fixed for histological examination. […] In comparison, the liver tissues of the 1n-treated and control groups were normal.\nMice were euthanized, and liver and kidney tissues were collected and fixed in 10% neutral-buffered formalin for 48 h. The fixed tissues were processed for paraffin embedding, including dehydration in a graded ethanol series, clearing with xylene, and infiltration with molten paraffin wax. Paraffin blocks were sectioned into 4 μm slices using a rotary microtome, and the sections were mounted onto glass slides. The slides were dried at 60 °C for 4 h to ensure proper tissue adhesion. Following deparaffinization and rehydration, staining was performed according to the manufacturer’s instructions for the H&E staining kit (Solarbio, China). The sections were immersed in a hematoxylin solution for 3 min to stain the nuclei and then rinsed under running tap water for 1 minute to remove excess stain. Differentiation was achieved by briefly immersing the slides in a 1% hydrochloric acid-ethanol solution, followed by neutralization in 0.6% ammonia water until the nuclei appeared blue. Eosin staining was applied for 30 s to stain cytoplasmic and extracellular components, imparting a pink coloration. The slides were rinsed under running tap water for 30 s to remove excess eosin. Finally, the sections were dehydrated through a graded ethanol series, cleared with xylene, and coverslipped with a neutral resin mounting medium to preserve the stained tissues for microscopic examination."}}, "data": [{"compound": "CCCCC(C)CC(C)C(=O)N(C)C(Cc1ccc(OC)cc1)C(=O)NC(C(=O)N(C)C(C(=O)N1CC(O)CC1C(=O)N1C(=O)C=CC1C)C(C)C)C(C)OC(C)=O", "note": "(stereo not drawn) [Compound 1a, Majusculamide D]", "values": [{"measurement": "remaining percentage in mouse plasma after 2 h", "setting": "[1]", "result": 54.7, "unit": "%"}, {"measurement": "mortality rate among the mice", "setting": "PANC-1 xenograft tumor; 5 mg/kg i.v. every other day, 24 days, n = 6", "result": 50, "unit": "%"}, {"measurement": "mice dead in treated group", "setting": "PANC-1 xenograft tumor; 5 mg/kg i.v., xenografted mouse model, six mice per group", "result": 3, "unit": "mice"}, {"measurement": "tumor inhibition rate (%)", "setting": "PANC-1 xenograft tumor; calculated from tumor weight, day 24, 1a, 1c, 1n 5 mg/kg, gemcitabine 20 mg/kg i.v.", "result": 64.8, "unit": "%"}, {"measurement": "tumor weight", "setting": "PANC-1 xenograft tumor; day 24, i.v. every other day, 1a, 1n 5 mg/kg, gemcitabine 20 mg/kg, mean ± SD", "result": "0.393 ± 0.049", "unit": "g"}, {"measurement": "tumor volume", "setting": "PANC-1 xenograft tumor; i.v. every other day for 24 days, 1a, 1n 5 mg/kg, gemcitabine 20 mg/kg, mean ± SD, n = 6", "result": "353.0 ± 66.7", "unit": "mm^3"}, {"measurement": "kidney tissue H&E histology", "setting": "[2]", "result": "no significant pathological differences"}, {"measurement": "liver tissue H&E histology", "setting": "[2]", "result": "signs of hepatocyte necrosis and disruption of the hepatic cord structure"}, {"measurement": "serum ALT and AST levels compared to the control group", "setting": "[2]; n = 3", "result": "substantially elevated"}]}]}
